Measurements published in patent US8841087B2 (priority 2008, dated 2014).

Test system: clinical strains of Mycobacterium tuberculosis
Assay: Reference phenotypic test of antibiotic sensitivity in solid medium
Assay type: cell-based
Details: six clinical strains

CC[C@@H](CO)NCCN[C@@H](CC)CO [ethambutol]
sensitivity at critical concentration (ethambutol, 5 μg/ml): sensitive

NNC(=O)c1ccncc1 [isoniazid]
sensitivity at critical concentration (isoniazid, 0.2 μg/ml): sensitive

[H]/N=C(/N)N[C@H]1[C@H](O)[C@@H](O)[C@H](O[C@@H]2O[C@@H](C)[C@](O)(C=O)[C@H]2O[C@@H]2O[C@@H](CO)[C@H](O)[C@@H](O)[C@@H]2NC)[C@@H](N/C(N)=N\[H])[C@@H]1O [streptomycin]
sensitivity at critical concentration (streptomycin, 5 μg/ml): sensitive
